Measurements: the supplement of paper PMC11061612

What was measured:
[1] = system: SNU-449 (Hepatocellular Carcinoma); assay: Bliss excess, mean over the matrix (fraction); higher = more synergy
Method in brief: (§1)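 Cell lines grown in DMEM/F12 or RPMI with 10% FBS were plated in 1536-well plates and held 24 hours at 37°C, 5% CO2 before 72 hours of exposure to two-drug dose matrices, with DMSO typically at 0.2%. CellTiter-Glo 2.0 luminescence gave viability, which was converted to inhibition. Vehicle wells were set to 0 and blank wells to 1. Combination Emax is the second-highest inhibition in the matrix, and Bliss excess is the observed combination effect minus the expected EA + EB − EA·EB, where EA and EB are the single-agent effects.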

[2] = system: SW1710 (Bladder Carcinoma); assay: as above
Method in brief: as §1

[3] = system: YAPC (Pancreatic Carcinoma); assay: as above
Method in brief: as §1

[4] = system: NCI-H209 (Small Cell Lung Carcinoma); assay: as above
Method in brief: as §1

NCI-H2052 (Mesothelioma) = assay: as above
Method in brief: as §1

[5] = system: SNU-16 (Gastric Carcinoma); assay: as above
Method in brief: as §1

[6] = system: BFTC-909 (Kidney Carcinoma); assay: as above
Method in brief: as §1

[7] = system: NCI-H1568 (Lung Adenocarcinoma); assay: as above
Method in brief: as §1

MPP-89 (Mesothelioma) = assay: as above
Method in brief: as §1

[8] = system: NCI-H524 (Small Cell Lung Carcinoma); assay: as above
Method in brief: as §1

[9] = system: Detroit562 (Head and Neck Carcinoma); assay: as above
Method in brief: as §1

A673 (Ewing's Sarcoma) [10] = assay: as above
Method in brief: as §1

GAMG (Glioblastoma) = assay: as above
Method in brief: as §1

[11] = system: SW1573 (Lung Adenocarcinoma); assay: as above
Method in brief: as §1

[12] = system: CAL-33 (Oral Cavity Carcinoma); assay: as above
Method in brief: as §1

[13] = system: SNU-449 (Hepatocellular Carcinoma); assay: combination Emax (second highest fraction inhibited in the dose matrix, 72 h); higher = more inhibition; extreme values may be limits of the assay
Method in brief: as §1

[14] = system: SW1710 (Bladder Carcinoma); assay: as above
Method in brief: as §1

[15] = system: BFTC-909 (Kidney Carcinoma); assay: as above
Method in brief: as §1

KS-1 (Glioblastoma) = assay: as above
Method in brief: as §1

A673 (Ewing's Sarcoma) [16] = assay: as above
Method in brief: as §1
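For Bliss excess, mean over the matrix in this document: after 72 h of two-drug dosing.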

Structure (SMILES) | Bliss excess [1] | Bliss excess [2] | Bliss excess [3] | Bliss excess [4] | Bliss excess (NCI-H2052 (Mesothelioma)) | Bliss excess [5] | Bliss excess [6] | Bliss excess [7] | Bliss excess (MPP-89 (Mesothelioma)) | Bliss excess [8] | Bliss excess [9] | Bliss excess (A673 (Ewing's Sarcoma) [10]) | Bliss excess (GAMG (Glioblastoma)) | Bliss excess [11] | Bliss excess [12] | combination Emax [13] | combination Emax [14] | combination Emax [15] | combination Emax (KS-1 (Glioblastoma)) | combination Emax (A673 (Ewing's Sarcoma) [16])
CC(=O)c1c(C)c2cnc(Nc3ccc(N4CCNCC4)cn3)nc2n(C2CCCC2)c1=O [Palbociclib] + Cn1cnc2c(F)c(Nc3ccc(Br)cc3Cl)c(C(=O)NOCCO)cc21 [Selumetinib] (first compound max 10 µM, 7x7, partner max 10 µM) | -0.0006 | 0.0054 | 0.0156 | -0.0528 | -0.0124 | 0.0339 | 0.0424 | -0.109 | -0.0394 | -0.0403 | -0.0041 | -0.009 | -0.0072 | -0.0288 | 0.0345 | 0.338 | 0.339 | 0.358 | 0.438 | 0.177
COc1cccc(OCCCN)c1-c1cc(Nc2cnc(C#N)cn2)n[nH]1 [Prexasertib] + C=CCn1c(=O)c2cnc(Nc3ccc(N4CCN(C)CC4)cc3)nc2n1-c1cccc(C(C)(C)O)n1 [AZD1775] (first compound max 1 µM, partner max 1 µM) | -0.0048 | 0.12 | 0.0441 | 0.0444 | 0.0221 | 0.0756 | 0.11 | 0.0284 | 0.0912 | 0.053 | 0.0416 | 0.0752 | 0.0606 | 0.0456 | 0.117 | 0.439 | 0.823 | 0.977 | 0.581 | 0.946
COc1cccc(OCCCN)c1-c1cc(Nc2cnc(C#N)cn2)n[nH]1 [Prexasertib] + CCc1c2c(nc3ccc(O)cc13)-c1cc3c(c(=O)n1C2)COC(=O)[C@]3(O)CC [SN-38] (first compound max 1 µM, 7x7, partner max 0.3 µM) | -0.0091 | 0.0504 | -0.0776 | 0.0053 | -0.0138 | 0.0333 | 0.0075 | 0.0165 | 0.0256 | 0.0554 | 0.055 | -0.0105 | 0.0292 | -0.0144 | -0.0329 | 0.531 | 0.86 | 0.996 | 0.536 | 0.998
COc1cccc(OCCCN)c1-c1cc(Nc2cnc(C#N)cn2)n[nH]1 [Prexasertib] + CN(C)CCCOc1ccc(-c2ccc3ncc4c(c3c2)n(C2CCOCC2)c(=O)n4C)cn1 [AZD0156] (first compound max 1 µM, 7x7, partner max 1 µM) | -0.0227 | -0.022 | -0.0799 | 0.0016 | -0.025 | -0.0135 | -0.0397 | -0.032 | -0.0242 | -0.0435 | -0.014 | 0.0133 | -0.0261 | -0.0129 | -0.0018 | 0.326 | 0.794 | 0.936 | 0.581 | 0.905
COc1cccc(OCCCN)c1-c1cc(Nc2cnc(C#N)cn2)n[nH]1 [Prexasertib] + C[C@@H]1COCCN1C2=NC(=NC(=C2)C3(CC3)[S@](=N)(=O)C)C4=C5C=CNC5=NC=C4 [AZD6738] (first compound max 1 µM, 7x7, partner max 10 µM) | 0.0134 | 0.0092 | 0.0689 | -0.0214 | -0.0282 | -0.0058 | 0.0417 | -0.0668 | -0.0232 | -0.0122 | -0.0311 | -0.014 | 0.0414 | -0.0066 | 0.0296 | 0.282 | 0.771 | 0.94 | 0.581 | 0.883
COc1cccc(OCCCN)c1-c1cc(Nc2cnc(C#N)cn2)n[nH]1 [Prexasertib] + Cc1cc2ncnn2cc1Nc1ncc2c(n1)n(C1CCOCC1)c(=O)n2C [AZD7648] (first compound max 1 µM, 7x7, partner max 10 µM) | -0.0861 | -0.045 | -0.0172 | 0 | -0.0349 | -0.0059 | 0.0182 | -0.0303 | -0.0104 | -0.0204 | -0.0342 | -0.0112 | -0.0214 | -0.0225 | 0.0099 | 0.308 | 0.728 | 0.945 | 0.546 | 0.875
COc1cccc(OCCCN)c1-c1cc(Nc2cnc(C#N)cn2)n[nH]1 [Prexasertib] + O=C(c1cc(Cc2n[nH]c(=O)c3ccccc23)ccc1F)N1CCN(C(=O)C2CC2)CC1 [Olaparib] (first compound max 1 µM, 7x7, partner max 10 µM) | -0.0813 | -0.0857 | -0.0491 | -0.0442 | -0.0332 | -0.0417 | -0.0109 | -0.0593 | -0.0227 | -0.0666 | -0.0467 | -0.0452 | 0.0122 | 0.001 | -0.012 | 0.234 | 0.761 | 0.917 | 0.628 | 0.923
